Literature values as cited in patent US6399592B1, “Bishphosphonate/estrogen synergistic therapy for treating and preventing bone loss” (Merck & Co., Inc., priority 1992, dated 2002).

What was measured:
[1] = tested on: bone mineralization; conditions: rats; long term
[2] = tested on: bone loss in ovaricetomized rats; conditions: in combination with estrogen

| SMILES | effects on bone mineralization [1] | effect on bone loss [2] |
| --- | --- | --- |
| CC(O)(P(=O)([O-])O)P(=O)([O-])O.[Na+].[Na+] [etidronate, (1-hydroxyethylidene)bisphosphonic acid, disodium salt] | long term adverse effects on bone mineralization | – |
| O=P([O-])(O)C(O)(Cc1cccnc1)P(=O)(O)O.[Na+] [risendronate, sodium trihydrogen [1-hydroxy-2-(3-pyridinyl)ethylidene]bisphosphonate] | – | positive effect on bone loss |
